This note sets out measurements from US11667602B2, “Compounds and their use” (AstraZeneca AB, priority 2020, dated 2023).

Converted amounts (≈) assume the structure as drawn. Bounds are passed on as bounds.

A short description of data set [1]: Human Plasma Protein Binding (Test B). The following applies: fraction unbound (fu). In kind it is in vitro ADME. In a few lines:
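Values given as % free (fu) in human plasma, using the method of Wernevik et al. (2020). For compounds tested more than once, the arithmetic mean is given.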

Data set [2] can be described thus: Human Liver Microsomal Stability (Test C). In kind it is in vitro ADME. Particulars: human, liver microsomes. In a few lines:
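CLint (μl/min/mg protein) derived from compound depletion in human liver microsomes following a published standardized early-DMPK protocol; replicate determinations given as arithmetic mean.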
(In general: Liver microsomes are vesicles of endoplasmic reticulum, rich in cytochrome P450 enzymes.)

A short description of data set [3]: Rat Hepatocyte Stability (Test E). The following applies: rat, hepatocytes, geometric mean if run multiple times. In kind it is in vitro ADME. In a few lines:
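Intrinsic clearance in rat hepatocytes, expressed as μl/min/10^6 cells, following the literature integrated DMPK panel method. Repeat determinations combined as geometric mean.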

A further data set can be described thus: Solubility (Test F). In kind it is physicochemical. Particulars: arithmetic mean if run multiple times. On the procedure:
The assay was conducted according to the Solubility Assay described in pages 164-167 of Wernevik, J. et al., “A Fully Integrated Assay Panel for Early Drug Metabolism and Pharmacokinetics Profiling”, Assay and Drug Development Technologies, 2020, 18(4), 157-179. Data are reported in Table 36 as solubility ([…]. Where the assay was run multiple times for the same compound, the arithmetic mean is reported.

The target in another data set is T1, human RXFP1 (Homo sapiens, UniProt Q9HBX9).
T1 sequence (Q9HBX9 1-757): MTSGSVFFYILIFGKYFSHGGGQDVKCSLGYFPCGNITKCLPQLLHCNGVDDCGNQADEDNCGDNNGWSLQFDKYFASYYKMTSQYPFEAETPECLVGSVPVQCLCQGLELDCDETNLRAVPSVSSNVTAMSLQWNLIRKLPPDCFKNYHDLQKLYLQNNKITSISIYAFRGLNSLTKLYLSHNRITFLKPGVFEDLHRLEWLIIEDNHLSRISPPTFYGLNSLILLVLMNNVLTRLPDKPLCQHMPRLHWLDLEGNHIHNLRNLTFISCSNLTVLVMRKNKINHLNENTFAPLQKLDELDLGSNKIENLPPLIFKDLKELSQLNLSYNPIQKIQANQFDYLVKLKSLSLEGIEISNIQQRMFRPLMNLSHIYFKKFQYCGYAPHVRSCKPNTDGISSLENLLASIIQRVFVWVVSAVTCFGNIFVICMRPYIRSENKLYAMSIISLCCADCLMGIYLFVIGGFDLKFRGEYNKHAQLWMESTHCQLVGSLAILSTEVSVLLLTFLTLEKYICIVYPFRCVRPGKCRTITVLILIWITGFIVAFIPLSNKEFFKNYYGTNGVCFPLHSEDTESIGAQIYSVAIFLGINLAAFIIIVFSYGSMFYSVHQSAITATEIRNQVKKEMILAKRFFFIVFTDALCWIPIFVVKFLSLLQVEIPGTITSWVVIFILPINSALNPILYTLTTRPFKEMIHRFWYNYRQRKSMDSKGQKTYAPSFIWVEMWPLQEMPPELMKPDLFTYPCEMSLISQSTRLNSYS
The experiment in a line: RXFP1 Hu cAMP (Test A). The class given is cell-based. Also on record: expressed in transfected cells; host or cells: Jump-In T-REx CHO-K1 cells (ThermoFisher), induced with 10 ng/ml doxycycline for 24 h. The following applies: RXFP1 Hu cAMP; for EC50: read-out: Test A EC50. The method, boiled down:
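Competitive HTRF cAMP readout (2 h, room temperature) in CHO-K1 cells stably expressing human RXFP1, induced with 10 ng/ml doxycycline for 24 h; IBMX 0.5 mM final.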

In general, microsomal CLint refers to the rate of metabolic loss divided by the concentration. As usually defined, the hepatocyte CLint is a measure of how fast metabolising enzymes remove a compound, apart from limits set by blood flow. Low readings indicate slow turnover, high ones rapid turnover. The solubility is how much of the substance goes into solution per volume. Lower therefore signals little dissolved substance. As usually defined, the EC50 is the concentration needed to bring the measured effect to its halfway point. `COc1cc(F)c(O[C@H]2CC[C@@H](C(=O)O)CC2)cc1C(=O)N[C@@H]1[C@H]2CC[C@H](C2)[C@@H]1C(=O)Nc1ccc(C(F)(F)F)cn1` [Example 13, (1S,4s)-4-(2-Fluoro-4-methoxy-5-(((1S,2R,3S,4R)-3-((5-(trifluoromethyl)pyridin-2-yl)carbamoyl)bicyclo[2.2.1]heptan-2-yl)carbamoyl)phenoxy)cyclohexane-1-carboxylic acid]: the “Test B Human Plasma Protein Binding (% free)” value in data set [1] is reported as 3.1 % free. For the same molecule, in data set [2], the microsomal CLint is 24 µL/min/mg. The hepatocyte CLint in data set [3] stood at 10 µL/min/1e6 cells. In “Solubility (Test F)”, this molecule registered a solubility of 520 µM (≈ 309 µg/mL). In addition, on human RXFP1, the “Test A Sinf” value stood at 115% and the EC50 was 6.3 µM.
Consider `COc1cc(F)c(O[C@H]2CC[C@@](C)(C(=O)O)CC2)cc1C(=O)Nc1cccc(Cl)c1C(=O)NCC1(C)CCC1` [Example 54, (1s,4s)-4-(5-((3-Chloro-2-(((1-methylcyclobutyl)methyl)carbamoyl)phenyl)carbamoyl)-2-fluoro-4-methoxyphenoxy)-1-methylcyclohexane-1-carboxylic acid], for which the “Test B Human Plasma Protein Binding (% free)” value in data set [1] came to 1.1 % free. In data set [2], this molecule gave a microsomal CLint of 16 µL/min/mg. In data set [3], this molecule registered a hepatocyte CLint of 13 µL/min/1e6 cells. The same molecule gave a solubility in “Solubility (Test F)” of 2.8 µM (≈ 1.57 µg/mL). For the same molecule, at human RXFP1, the “Test A Sinf” value turned out to be 108% and the EC50 was determined as 0.49 µM.
Take `CCCC1(CNC(=O)[C@H]2[C@@H]3CC[C@@H](C3)[C@H]2NC(=O)c2cc(O[C@H]3CC[C@@](C)(C(=O)O)CC3)c(C#N)cc2OC)CCC1` [Example 83]: in data set [1], the “Test B Human Plasma Protein Binding (% free)” value turned out to be 1.6 % free. In data set [2], this molecule yielded a microsomal CLint of 130 µL/min/mg. Also, the hepatocyte CLint in data set [3] amounted to 25 µL/min/1e6 cells. The molecule further yielded a solubility in the data set “Solubility (Test F)” of 250 µM (≈ 145 µg/mL). For the same molecule, on human RXFP1, the “Test A Sinf” value is reported as 111% and the EC50 worked out at 0.017 µM.
`COc1cc(F)c(O[C@H]2CC[C@@H](C(=O)O)CC2)cc1C(=O)N[C@@H]1[C@H]2CC[C@H](C2)[C@@H]1C(=O)NC1CC(F)(F)C1` [Example 33, (1S,4s)-4-(5-(((1S,2R,3S,4R)-3-((3,3-Difluorocyclobutyl)carbamoyl)bicyclo[2.2.1]heptan-2-yl)carbamoyl)-2-fluoro-4-methoxyphenoxy)cyclohexane-1-carboxylic acid]: the “Test B Human Plasma Protein Binding (% free)” value in data set [1] is 15 % free. For the same molecule, the intrinsic clearance (microsomal CLint) in data set [2] is under 3 µL/min/mg. This molecule also gave a hepatocyte CLint in data set [3] of 110 µL/min/1e6 cells. This molecule also yielded a solubility in “Solubility (Test F)” of over 1000 µM. Moreover, on human RXFP1, the “Test A Sinf” value is on record as 88% and the EC50 is over 5 µM.
`COc1cc(C#N)c(O[C@H]2CC[C@@H](C(=O)O)CC2)cc1C(=O)N[C@@H]1[C@H]2CC[C@H](C2)[C@@H]1C(=O)Nc1cccc(S(=O)(=O)C(F)(F)F)c1` [Example 467, (1S,4s)-4-(2-Cyano-4-methoxy-5-(((1S,2R,3S,4R)-3-((3-((trifluoromethyl)sulfonyl)phenyl)carbamoyl)bicyclo[2.2.1]heptan-2-yl)carbamoyl)phenoxy)cyclohexane-1-carboxylic acid]: in data set [1], the “Test B Human Plasma Protein Binding (% free)” value was 3.7 % free. The molecule further displayed an intrinsic metabolic clearance (microsomal CLint) in data set [2] of 37 µL/min/mg. The molecule also displayed a hepatocyte CLint in data set [3] of 47 µL/min/1e6 cells. This molecule registered a solubility in the data set “Solubility (Test F)” of over 1000 µM. On human RXFP1, the “Test A Sinf” value was determined as 99% and the EC50 came to 0.019 µM.
For `COc1cc(F)c(-c2ccc(/C=C/C(=O)O)nc2)cc1C(=O)N[C@@H]1[C@H]2CC[C@H](C2)[C@@H]1C(=O)Nc1cccc(S(=O)(=O)C(F)(F)F)c1` [Example 260, (E)-3-(5-(2-Fluoro-4-methoxy-5-(((1S,2R,3S,4R)-3-((3-((trifluoromethyl)sulfonyl)phenyl)carbamoyl)bicyclo[2.2.1]heptan-2-yl)carbamoyl)phenyl)pyridin-2-yl)acrylic acid], in data set [1], the “Test B Human Plasma Protein Binding (% free)” value is 0.57 % free. This molecule also came in with a microsomal CLint in data set [2] of 69 µL/min/mg. Moreover, the hepatocyte CLint in data set [3] was determined as 69 µL/min/1e6 cells. The molecule also gave a solubility in “Solubility (Test F)” of 360 µM (≈ 238 µg/mL). Besides, the “Test A Sinf” value on human RXFP1 is listed as 108%.
Take `COc1cc(C#N)c(O[C@H]2CC[C@@](C)(C(=O)O)CC2)cc1C(=O)N[C@@H]1[C@H]2CC[C@H](C2)[C@@H]1C(=O)NCC(C)(F)F` [Example 96]: in data set [1], the “Test B Human Plasma Protein Binding (% free)” value turned out to be 26 % free. The molecule further yielded a microsomal CLint in data set [2] of under 3 µL/min/mg. The molecule further returned an intrinsic metabolic clearance (hepatocyte CLint) in data set [3] of 24 µL/min/1e6 cells. Besides, the solubility in the data set “Solubility (Test F)” was 890 µM (≈ 487 µg/mL). Besides, on human RXFP1, the “Test A Sinf” value stood at 97% and the EC50 was determined as 0.44 µM.
Turning to `COc1cc(C#N)c(O[C@H]2CC[C@@](C)(C(=O)O)CC2)cc1C(=O)N[C@@H]1[C@H]2CC[C@H](C2)[C@@H]1C(=O)NCC1(OC)CC1` [Example 111], in data set [1], the “Test B Human Plasma Protein Binding (% free)” value was found to be 31 % free. Moreover, in data set [2], the microsomal CLint was under 3 µL/min/mg. The same molecule came in with a hepatocyte CLint in data set [3] of 18 µL/min/1e6 cells. In the data set “Solubility (Test F)”, this molecule came in with a solubility of 860 µM (≈ 476 µg/mL). Further, at human RXFP1, the “Test A Sinf” value amounted to 100% and the EC50 came to 0.68 µM.
With `COc1cc(F)c(O[C@H]2CC[C@@H](C(=O)O)CC2)cc1C(=O)N[C@@H]1[C@H]2CC[C@H](C2)[C@@H]1C(=O)NC1CCC1` [Example 177], the “Test B Human Plasma Protein Binding (% free)” value in data set [1] is recorded as 15 % free. The molecule also had an intrinsic metabolic clearance (microsomal CLint) in data set [2] of 3.5 µL/min/mg. Also, the hepatocyte CLint in data set [3] is 130 µL/min/1e6 cells. For the same molecule, the solubility in the data set “Solubility (Test F)” is over 1000 µM. Further, at human RXFP1, the “Test A Sinf” value was found to be 100% and the EC50 was over 2.2 µM.
`COc1cc(F)c(O[C@H]2CC[C@@H](C(=O)O)CC2)cc1C(=O)N[C@@H]1[C@H]2CC[C@H](C2)[C@@H]1C(=O)Nc1ccnc(C(F)(F)F)c1` [Example 12, (1S,4s)-4-(2-Fluoro-4-methoxy-5-(((1S,2R,3S,4R)-3-((2-(trifluoromethyl)pyridin-4-yl)carbamoyl)bicyclo[2.2.1]heptan-2-yl)carbamoyl)phenoxy)cyclohexane-1-carboxylic acid]: the “Test B Human Plasma Protein Binding (% free)” value in data set [1] amounted to 2.7 % free. Also, in data set [2], the intrinsic clearance (microsomal CLint) amounted to 23 µL/min/mg. The hepatocyte CLint in data set [3] was 64 µL/min/1e6 cells. In the data set “Solubility (Test F)”, this molecule gave a solubility of 850 µM (≈ 505 µg/mL). Besides, at human RXFP1, the “Test A Sinf” value was found to be 107% and the EC50 stood at 0.41 µM.
On to `COc1cc(F)c(O[C@H]2CC[C@@](C)(C(=O)O)CC2)cc1C(=O)Nc1nn2cccnc2c1C(=O)NCC1(C)CCC1` [Example 217, (1s,4s)-4-(2-Fluoro-4-methoxy-5-((3-(((1-methylcyclobutyl)methyl)carbamoyl)pyrazolo[1,5-a]pyrimidin-2-yl)carbamoyl)phenoxy)-1-methylcyclohexane-1-carboxylic acid], for which, in data set [1], the “Test B Human Plasma Protein Binding (% free)” value is reported as 0.19 % free. The molecule also returned a microsomal CLint in data set [2] of 43 µL/min/mg. For the same molecule, the intrinsic metabolic clearance (hepatocyte CLint) in data set [3] was found to be 17 µL/min/1e6 cells. For the same molecule, in the data set “Solubility (Test F)”, the solubility was under 7.3 µM. Also, the EC50 on human RXFP1 is over 9.4 µM.
Regarding `COc1cc(F)c(-c2cccc(CCC(=O)O)c2)cc1C(=O)N[C@@H]1CCC[C@@H]1C(=O)Nc1cccc(S(=O)(=O)C(F)(F)F)c1` [Example 319], in data set [1], the “Test B Human Plasma Protein Binding (% free)” value came out at 0.44 % free. The molecule further yielded a microsomal CLint in data set [2] of 18 µL/min/mg. In data set [3], this molecule showed an intrinsic clearance (hepatocyte CLint) of 29 µL/min/1e6 cells. The solubility in the data set “Solubility (Test F)” amounted to 380 µM (≈ 242 µg/mL). Moreover, at human RXFP1, the “Test A Sinf” value was 79% and the EC50 is 0.75 µM.
In the case of `COc1cc(F)c(-c2ccc(C[C@@H](N)C(=O)O)cc2)cc1C(=O)N[C@@H]1[C@H]2CC[C@H](C2)[C@@H]1C(=O)Nc1cccc(S(=O)(=O)C(F)(F)F)c1` [Example 291, (R)-2-Amino-3-(2′-fluoro-4′-methoxy-5′-(((1S,2R,3S,4R)-3-((3-((trifluoromethyl)sulfonyl)phenyl)carbamoyl)bicyclo[2.2.1]heptan-2-yl)carbamoyl)-[1,1′-biphenyl]-4-yl)propanoic acid], the “Test B Human Plasma Protein Binding (% free)” value in data set [1] is reported as under 1.2 % free. This molecule also showed a microsomal CLint in data set [2] of 18 µL/min/mg. Moreover, in data set [3], the hepatocyte CLint was 22 µL/min/1e6 cells. In addition, the solubility in the data set “Solubility (Test F)” was 13 µM (≈ 8.81 µg/mL). On human RXFP1, the “Test A Sinf” value was 106% and the concentration for a half-maximal effect (EC50) is 0.37 µM.
